Entries after “also recorded” stand apart in the source; their conditions may differ. Where no end group is shown, it is not given here.

In one data set the test system is HeLa cells. As to the kind of experiment: Cellular uptake of fluorescent-labeled peptide vaccines, fluorescent microscopy. Format: cell-based, human. As for the experimental part:
Methods: In this experiment, the uptake of two fluorescent-labeled peptide vaccines was examined using a fluorescent microscope in cultured cells. HeLa cells were grown on cover slides for one day and then treated with peptide vaccines. Cells were fixed with 4% paraformaldehyde, washed with PBS, and analyzed with fluorescent microscopy.

The test system of data set [1] is Monocyte-derived dendritic cells. Format: cell-based, human.
The subject of data set [2] is peritoneal tumour biopsies. Put plainly: Transcriptome analysis of the Murcia patient's peritoneal tumour biopsies. To be noted: target of 2nd generation personalized vaccines.
From the text: All the putative 8-20 amino acids long epitopes were created from these proteins and used for designing the 2nd generation of personalized vaccines according to the invention. […] These antigens have different length and amino acid sequences. All selected peptide antigen contains multiple highly ranked epitopes (13-66) presented on the cell surface by the patient's HLA class I and class II molecules. The range of the potency score is indicated for the selected epitopes. Epitopes presented by the patient's HLA class I and class II molecules are indicated to induce CD8 and CD4 responses, respectively. As described in the invention, the potency of each epitope in the vaccines was calculated and indicated to inform the physician about the predicted efficacy of the personalised vaccines in the recipient.

Take “Fluoresc-KSSQYIKANSKFIGITEAAALNVPMVATV-NH2 (fluorescein-KSSQYIKANSKFIGITEAAALNVPMVATV-NH2) [peptide vaccines (CD4-CD8), control peptide vaccine lacking the R8 component, reference compound]”: the cellular uptake entry in the data set on HeLa cells (120 minutes) was “poorly detectable cellular uptake”. As to “Fluoresc-KSS-QYIKANSKFIGITE-RRRRRRRR-LNVPMVATV (fluorescein-KSSQYIKANSKFIGITERRRRRRRRLNVPMVATV)”, in data set [1], the “uptake in dendritic cells compared to the control vaccines” value was “substantial increase in the uptake; also recorded: exceptional uptake”. Take “Fluoresc-KSSQYIKANSKFIGITERRRRRRRRLNVPMVATV-NH2 (fluorescein-KSSQYIKANSKFIGITERRRRRRRRLNVPMVATV-NH2) [vaccine (CD4-R8-CD8)]”: the cellular uptake entry was “diffuse distribution throughout the cytoplasm and nucleus” with HeLa cells (120 minutes); “rapid uptake into both the cytoplasm and nucleus” in the data set with HeLa cells (within 30 minutes). Also, the “cellular uptake compared to the control vaccines” value in the data set with HeLa cells (after 30 minutes and 120 minutes of incubation) was “substantial increase in the uptake”.

B1: ODF2 (protein, UniProt Q5BJF6 1-829, looked up)
Outer dense fiber protein 2: MSASSSGGSPRFPSCGKNGVTSLTQKKVLRAPCGAPSVTVTKSHKRGMKGDTVNVRRSVRVKTKVPWMPPGKSSARPVGCKWENPPHCLEITPPSSEKLVSVMRLSDLSTEDDDSGHCKMNRYDKKIDSLMNAVGCLKSEVKMQKGERQMAKRFLEERKEELEEVAHELAETEHENTVLRHNIERMKEEKDFTILQKKHLQQEKECLMSKLVEAEMDGAAAAKQVMALKDTIGKLKTEKQMTCTDINTLTRQKELLLQKLSTFEETNRTLRDLLREQHCKEDSERLMEQQGALLKRLAEADSEKARLLLLLQDKDKEVEELLQEIQCEKAQAKTASELSKSMESMRGHLQAQLRSKEAENSRLCMQIKNLERSGNQHKAEVEAIMEQLKELKQKGDRDKESLKKAIRAQKERAEKSEEYAEQLHVQLADKDLYVAEALSTLESWRSRYNQVVKEKGDLELEIIVLNDRVTDLVNQQQTLEEKMREDRDSLVERLHRQTAEYSAFKLENERLKASFAPMEDKLNQAHLEVQQLKASVKNYEGMIDNYKSQVMKTRLEADEVAAQLERCDKENKILKDEMNKEIEAARRQFQSQLADLQQLPDILKITEAKLAECQDQLQGYERKNIDLTAIISDLRSRIEHQGDKLEMAREKHQASQKENKQLSLKVDELERKLEATSAQNIEFLQVIAKREEAIHQSQLRLEEKTRECGTLARQLESAIEDARRQVEQTKEHALSKERAAQNKILDLETQLSRTKTELSQLRRSRDDADRRYQSRLQDLKDRLEQSESTNRSMQNYVQFLKSSYANVFGDGPYSTFLTSSPIRSRSPPA
The molecule B1 displayed a Relative expression in data set [2] of 19.

B2: ATAD2 (protein, UniProt Q6PL18 1-1390, looked up)
ATPase family AAA …: MVVLRSSLELHNHSAASATGSLDLSSDFLSLEHIGRRRLRSAGAAQKKPAATTAKAGDGSSVKEVETYHRTRALRSLRKDAQNSSDSSFEKNVEITEQLANGRHFTRQLARQQADKKKEEHREDKVIPVTRSLRARNIVQSTEHLHEDNGDVEVRRSCRIRSRYSGVNQSMLFDKLITNTAEAVLQKMDDMKKMRRQRMRELEDLGVFNETEESNLNMYTRGKQKDIQRTDEETTDNQEGSVESSEEGEDQEHEDDGEDEDDEDDDDDDDDDDDDDDEDDEDEEDGEEENQKRYYLRQRKATVYYQAPLEKPRHQRKPNIFYSGPASPARPRYRLSSAGPRSPYCKRMNRRRHAIHSSDSTSSSSSEDEQHFERRRKRSRNRAINRCLPLNFRKDELKGIYKDRMKIGASLADVDPMQLDSSVRFDSVGGLSNHIAALKEMVVFPLLYPEVFEKFKIQPPRGCLFYGPPGTGKTLVARALANECSQGDKRVAFFMRKGADCLSKWVGESERQLRLLFDQAYQMRPSIIFFDEIDGLAPVRSSRQDQIHSSIVSTLLALMDGLDSRGEIVVIGATNRLDSIDPALRRPGRFDREFLFSLPDKEARKEILKIHTRDWNPKPLDTFLEELAENCVGYCGADIKSICAEAALCALRRRYPQIYTTSEKLQLDLSSINISAKDFEVAMQKMIPASQRAVTSPGQALSTVVKPLLQNTVDKILEALQRVFPHAEFRTNKTLDSDISCPLLESDLAYSDDDVPSVYENGLSQKSSHKAKDNFNFLHLNRNACYQPMSFRPRILIVGEPGFGQGSHLAPAVIHALEKFTVYTLDIPVLFGVSTTSPEETCAQVIREAKRTAPSIVYVPHIHVWWEIVGPTLKATFTTLLQNIPSFAPVLLLATSDKPHSALPEEVQELFIRDYGEIFNVQLPDKEERTKFFEDLILKQAAKPPISKKKAVLQALEVLPVAPPPEPRSLTAEEVKRLEEQEEDTFRELRIFLRNVTHRLAIDKRFRVFTKPVDPDEVPDYVTVIKQPMDLSSVISKIDLHKYLTVKDYLRDIDLICSNALEYNPDRDPGDRLIRHRACALRDTAYAIIKEELDEDFEQLCEEIQESRKKRGCSSSKYAPSYYHVMPKQNSTLVGDKRSDPEQNEKLKTPSTPVACSTPAQLKRKIRKKSNWYLGTIKKRRKISQAKDDSQNAIDHKIESDTEETQDTSVDHNETGNTGESSVEENEKQQNASESKLELRNNSNTCNIENELEDSRKTTACTELRDKIACNGDASSSQIIHISDENEGKEMCVLRMTRARRSQVEQQQLITVEKALAILSQPTPSLVVDHERLKNLLKTVVKKSQNYNIFQLENLYAVISQCIYRHRKDHDKTSLIQKMEQEVENFSCSR
With B2, the Relative expression in data set [2] came out at 9.

These data come from patent US20260188423A1, “IDENTIFICATION OF CELL SURFACE ANTIGENS WHICH INDUCE T-CELL RESPONSES AND THEIR USES” (priority 2022, published 2026).
